PubChem BioAssay AID330 (DTP/NCI, 2004)
“And” between values parts separate entries of the source, which are not always exact repeats. Equal entries are not always repeated. Inconclusive results and toxic doses are left out.

Test system: P388 leukemia ip, CD2F1 mice, survival T/C
Assay: NCI In Vivo Anticancer Drug Screen. Data for tumor model P388 Leukemia (intraperitoneal) in CD2F1 (CDF1) mice
Conditions: endpoint: median survival time, higher = longer survival
Summary of the method: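 Mice carrying the transplanted tumor received test compound or vehicle. Survival was recorded in each group, and the value is the treated-group measurement divided by that of the vehicle-treated control group.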

[1] = dose: 50.0 mg/kg/injection, schedule: Q01DX009 (ip), vehicle: Klucel (hydroxypropylcellulose) (HPC)
[2] = dose: 100.0 mg/kg/injection, schedule: Q01DX009 (ip), vehicle: Klucel (hydroxypropylcellulose) (HPC)
[3] = dose: 200.0 mg/kg/injection, schedule: Q01DX009 (ip), vehicle: Klucel (hydroxypropylcellulose) (HPC)
[4] = dose: 60.0 mg/kg/injection, schedule: Q01DX005 (ip), vehicle: Klucel (hydroxypropylcellulose) (HPC)
[5] = dose: 120.0 mg/kg/injection, schedule: Q01DX005 (ip), vehicle: Klucel (hydroxypropylcellulose) (HPC)
[6] = dose: 100.0 mg/kg/injection, schedule: Q01DX001 (ip), vehicle: saline with Tween-80
[7] = dose: 200.0 mg/kg/injection, schedule: Q01DX001 (ip), vehicle: saline with Tween-80
[8] = dose: 400.0 mg/kg/injection, schedule: Q01DX001 (ip), vehicle: saline with Tween-80

## CC(=O)NCCSC(NC(=O)c1ccccc1)C(=O)O (stereo not drawn)
[1]
  T/C: 90 % of control
[2]
  T/C: 101 % of control
[3]
  T/C: 98 % of control

## COC1(OC)C(c2ccc(Cl)cc2)C(C#N)(C#N)C1(OC)OC (stereo not drawn)
[4]
  T/C: 100 % of control
[5]
  T/C: 102 % of control
dose: 240.0 mg/kg/injection, schedule: Q01DX005 (ip), vehicle: Klucel (hydroxypropylcellulose) (HPC)
  T/C: 96 % of control

## O=c1[nH]nc(OCCO)c2ccccc12
dose: 50.0 mg/kg/injection, schedule: Q01DX005 (ip), vehicle: Klucel (hydroxypropylcellulose) (HPC)
  T/C: 100 % of control
dose: 100.0 mg/kg/injection, schedule: Q01DX005 (ip), vehicle: Klucel (hydroxypropylcellulose) (HPC)
  T/C: 98 % of control
dose: 200.0 mg/kg/injection, schedule: Q01DX005 (ip), vehicle: Klucel (hydroxypropylcellulose) (HPC)
  T/C: 99 % of control

## O=[N+]([O-])C(CO)CCCC(CO)[N+](=O)[O-] (stereo not drawn)
dose: 50.0 mg/kg/injection, schedule: Q01DX005 (ip), vehicle: saline
  T/C: 111 % of control
dose: 100.0 mg/kg/injection, schedule: Q01DX005 (ip), vehicle: saline
  T/C: 107 % of control
dose: 200.0 mg/kg/injection, schedule: Q01DX005 (ip), vehicle: saline
  T/C: 107 % of control

## O=S(=O)(Nc1nccs1)c1ccc(NCc2c3ccccc3nc3ccccc23)cc1
dose: 100.0 mg/kg/injection, schedule: Q04DX002 (ip), vehicle: Klucel (hydroxypropylcellulose) (HPC)
  T/C: 101 % of control
dose: 200.0 mg/kg/injection, schedule: Q04DX002 (ip), vehicle: Klucel (hydroxypropylcellulose) (HPC)
  T/C: 100 % of control
dose: 400.0 mg/kg/injection, schedule: Q04DX002 (ip), vehicle: Klucel (hydroxypropylcellulose) (HPC)
  T/C: 105 % of control

## COc1cc(N=Nc2c(Cl)cc([N+](=O)[O-])cc2Cl)c([OH+]C)cc1[N+]#N.COc1cc(N=Nc2c(Cl)cc([N+](=O)[O-])cc2Cl)c([OH+]C)cc1[N+]#N.[Cl][Zn][Cl]
dose: 50.0 mg/kg/injection, schedule: Q01DX009 (ip), vehicle: saline
  T/C: 111 % of control and 115 % of control
dose: 100.0 mg/kg/injection, schedule: Q01DX009 (ip), vehicle: saline
  T/C: 120 % of control and 122 % of control
dose: 200.0 mg/kg/injection, schedule: Q01DX009 (ip), vehicle: saline
  T/C: 119 % of control and 124 % of control
dose: 400.0 mg/kg/injection, schedule: Q01DX009 (ip), vehicle: saline
  T/C: 119 % of control

## CC(=O)OCC1OC(n2nnc3c(=O)[nH]cnc32)C(OC(C)=O)C(OC(C)=O)C1OC(C)=O (stereo not drawn)
[6]
  T/C: 96 % of control
[7]
  T/C: 102 % of control
[8]
  T/C: 94 % of control

## CC(=O)C(N=Nc1ccc(S(=O)(=O)N=C(N)N)cc1)C(C)=O
dose: 100.0 mg/kg/injection, schedule: Q04DX003 (ip), vehicle: saline with Tween-80
  T/C: 90 % of control
dose: 200.0 mg/kg/injection, schedule: Q04DX003 (ip), vehicle: saline with Tween-80
  T/C: 88 % of control
dose: 400.0 mg/kg/injection, schedule: Q04DX003 (ip), vehicle: saline with Tween-80
  T/C: 87 % of control

## CN(C)CCSC1=Nc2ccc(Cl)cc2C(c2ccccc2Cl)N(C)C1 (stereo not drawn)
[4]
  T/C: 100 % of control
[5]
  T/C: 100 % of control

## O=[N+]([O-])c1ccc(/C=C(/c2ccc([N+](=O)[O-])o2)S(=O)(=O)c2ccccc2)o1
dose: 50.0 mg/kg/injection, schedule: Q01DX009 (ip), vehicle: suspension in saline
  T/C: 95 % of control
dose: 100.0 mg/kg/injection, schedule: Q01DX009 (ip), vehicle: suspension in saline
  T/C: 100 % of control

## CC(=NCc1ccccc1)c1c(C)cc(=O)n(-c2ccccc2)c1O
dose: 60.0 mg/kg/injection, schedule: Q01DX005 (ip), vehicle: saline with Tween-80
  T/C: 96 % of control
dose: 120.0 mg/kg/injection, schedule: Q01DX005 (ip), vehicle: saline with Tween-80
  T/C: 97 % of control
dose: 240.0 mg/kg/injection, schedule: Q01DX005 (ip), vehicle: saline with Tween-80
  T/C: 89 % of control

## COc1ccc(NC(=O)c2sc(SC)nc2N)cc1
[1]
  T/C: 100 % of control
[2]
  T/C: 98 % of control
[3]
  T/C: 97 % of control

## C[CH2][Pb]([CH2]C)([CH2]C)[n]1cnc2ccccc21
dose: 0.75 mg/kg/injection, schedule: Q01DX009 (ip), vehicle: Klucel (hydroxypropylcellulose) (HPC)
  T/C: 99 % of control
dose: 1.5 mg/kg/injection, schedule: Q01DX009 (ip), vehicle: Klucel (hydroxypropylcellulose) (HPC)
  T/C: 118 % of control
dose: 3.0 mg/kg/injection, schedule: Q01DX009 (ip), vehicle: Klucel (hydroxypropylcellulose) (HPC)
  T/C: 118 % of control
dose: 3.12 mg/kg/injection, schedule: Q04DX003 (ip), vehicle: Klucel (hydroxypropylcellulose) (HPC)
  T/C: 96 % of control
dose: 6.25 mg/kg/injection, schedule: Q04DX003 (ip), vehicle: Klucel (hydroxypropylcellulose) (HPC)
  T/C: 114 % of control
dose: 12.5 mg/kg/injection, schedule: Q04DX003 (ip), vehicle: Klucel (hydroxypropylcellulose) (HPC)
  T/C: 92 % of control

## N#Cc1c(-c2ccccc2)sc2ccccc2c1=O
[6]
  T/C: 99 % of control
[7]
  T/C: 93 % of control
[8]
  T/C: 98 % of control

## CC1C(O)C2(Oc3cc4c(c5c3[C@@H](CC5O)[C@H]2C)CCC2Cc3nc5c(nc3C[C@@]42C)CC2CCC3C4=C[C@H]6O[C@@]7(O[C@@](C)(CO)C[C@@H]7O)C(C)[C@@]6(O)[C@]4(C)[C@@H](O)CC3[C@]2(C)C5)OC1(C)C (stereo partly drawn)
dose: 12.5 micrograms/kg/injection, schedule: Q01DX009 (ip), vehicle: saline + alcohol
  T/C: 107 % of control
dose: 25.0 micrograms/kg/injection, schedule: Q01DX009 (ip), vehicle: saline + alcohol
  T/C: 100 % of control
dose: 50.0 micrograms/kg/injection, schedule: Q01DX009 (ip), vehicle: saline + alcohol
  T/C: 107 % of control
dose: 100.0 micrograms/kg/injection, schedule: Q01DX009 (ip), vehicle: saline + alcohol
  T/C: 109 % of control

## CN(C)C1=C(Cl)C(=O)c2[nH]cnc2C1=O
dose: 6.25 mg/kg/injection, schedule: Q01DX005 (ip), vehicle: Klucel (hydroxypropylcellulose) (HPC)
  T/C: 113 % of control
dose: 12.5 mg/kg/injection, schedule: Q01DX005 (ip), vehicle: Klucel (hydroxypropylcellulose) (HPC)
  T/C: 110 % of control
dose: 25.0 mg/kg/injection, schedule: Q01DX005 (ip), vehicle: Klucel (hydroxypropylcellulose) (HPC)
  T/C: 98 % of control

## COc1ccc2c(c1)-c1nn(CCCN(C)C)c3ccc([N+](=O)[O-])c(c13)N2
dose: 4.5 mg/kg/injection, schedule: Q01DX005 (ip), vehicle: water
  T/C: 169 % of control
dose: 6.25 mg/kg/injection, schedule: Q01DX005 (ip), vehicle: water
  T/C: 189 % of control
dose: 7.5 mg/kg/injection, schedule: Q01DX005 (ip), vehicle: water
  T/C: 181 % of control
dose: 12.5 mg/kg/injection, schedule: Q01DX005 (ip), vehicle: water
  T/C: 213 % of control and 216 % of control and 227 % of control
dose: 21.0 mg/kg/injection, schedule: Q01DX005 (ip), vehicle: water
  T/C: 253 % of control
dose: 25.0 mg/kg/injection, schedule: Q01DX005 (ip), vehicle: water
  T/C: 261 % of control
dose: 35.0 mg/kg/injection, schedule: Q01DX005 (ip), vehicle: water
  T/C: 290 % of control
